Source: US20220033396A1, “FURTHER HETEROAROMATIC COMPOUNDS HAVING ACTIVITY AGAINST RSV” (priority 2018, published 2022)

What was measured:
[1] = test system: rgRSV224 virus; experiment: microbe, parasite or virus in culture; format: cell-based; conditions: human respiratory syncytial virus, 72 h; rgRSV224 virus (MOI=1), HeLa cells, GFP expression three days post-virus exposure; averaged data of several repeat experiments; read-out: RSV HELA EC50
[2] = in vitro; conditions: human

Structure (SMILES)	EC50 [1] [µM]	CC50 at 3 days [2] [µM]
CC1c2ccsc2CCN1C(=O)c1cc(C2CC2)c2nc(-c3ccc(NC(=O)N4CC[C@@H](O)C4)cc3F)cn2n1 (single isomer, unassigned) [Compound 38, (R)-N-(4-(8-cyclopropyl-6-((R*)-4-methyl-4,5,6,7-tetrahydrothieno[3,2-c]pyridine-5-carbonyl)imidazo[1,2-b]pyridazin-2-yl)-3-fluorophenyl)-3-hydroxypyrrolidine-1-carboxamide]	0.012	35.9
CCc1cc(C(=O)N2CCc3ccccc3[C@H]2C)nn2cc(-c3ccc(NC(=O)N4CC[C@@H](O)C4)cc3F)nc12 [Compound 39, (R)-N-(4-(8-ethyl-6-((R)-1-methyl-1,2,3,4-tetrahydroisoquinoline-2-carbonyl)imidazo[1,2-b]pyridazin-2-yl)-3-fluorophenyl)-3-hydroxypyrrolidine-1-carboxamide]		29.3
C[C@@H]1c2ccccc2CCN1C(=O)c1cc(N(C)C)c2nc(-c3ccc(N4CC[C@H](C(N)=O)C4)cc3F)cn2c1 [Compound 19, (3S)-1-{4-[8-(Dimethylamino)-6-[(1R)-1-methyl-1,2,3,4-tetrahydroisoquinoline-2-carbonyl]imidazo[1,2-a]pyridin-2-yl]-3-fluorophenyl}pyrrolidine-3-carboxylamide]	0.141	43.9
C[C@@H]1c2ccccc2CCN1C(=O)c1cc(-c2cccc(F)c2)c2nc(-c3ccc(NC(=O)N4CC[C@@H](O)C4)cc3F)cn2n1 [Compound 43, (R)-N-(3-fluoro-4-(8-(3-fluorophenyl)-6-((R)-1-methyl-1,2,3,4-tetrahydroisoquinoline-2-carbonyl)imidazo[1,2-b]pyridazin-2-yl)phenyl)-3-hydroxypyrrolidine-1-carboxamide]	0.022	> 100
C[C@@H]1c2ccccc2CCN1C(=O)c1cc(C2CC2)c2nc(-c3ccc(N4CC[C@H](C(=O)O)C4)cc3F)cn2c1 [Compound 9, (3S)-1-(4-{8-Cyclopropyl-6-[(1R)-1-methyl-1,2,3,4-tetrahydroisoquinoline-2-carbonyl]imidazo[1,2-a]pyridin-2-yl}-3-fluorophenyl)pyrrolidine-3-carboxylic Acid]	0.045	68.4
C[C@@H]1c2ccccc2CCN1C(=O)c1cc(C2CC2)c2nc(-c3ccc(C4C[C@@H]4C(N)=O)cc3F)cn2c1 (relative stereo) [Compound 7, Trans 2-(4-{8-Cyclopropyl-6-[(1R)-1-methyl-1,2,3,4-tetrahydroisoquinoline-2-carbonyl]imidazo[1,2-a]pyridin-2-yl}-3-fluorophenyl)cyclopropane-1-carboxamide]	0.184	65.4
CCc1cc(C(=O)N2CCc3ccccc3[C@H]2C)nn2cc(-c3ccc(/C=C/C(=O)O)cc3F)nc12 [Compound 36, (R,E)-3-(4-(8-ethyl-6-(1-methyl-1,2,3,4-tetrahydroisoquinoline-2-carbonyl)imidazo[1,2-b]pyridazin-2-yl)-3-fluorophenyl)acrylic Acid]	0.039	17.2
CCc1cc(C(=O)N(CC)C(C)C(C)C)nn2cc(-c3ccc(NC(=O)N4CC[C@@H](O)C4)cc3F)nc12 (stereo partly drawn) [Compound 42, N,8-diethyl-2-(2-fluoro-4-((R)-3-hydroxypyrrolidine-1-carboxamido)phenyl)-N-(3-methylbutan-2-yl)imidazo[1,2-b]pyridazine-6-carboxamide]	5.55	46.8
C[C@@H]1CCCCCN1C(=O)c1cc(C2CC2)c2nc(-c3ccc(N4CC[C@H](C(N)=O)C4)cc3F)cn2c1 [Compound 15, (3S)-1-(4-{8-Cyclopropyl-6-[(2R)-2-methylazepane-1-carbonyl]imidazo[1,2-a]pyridin-2-yl}-3-fluorophenyl)pyrrolidine-3-carboxamide]	1.07	13.2
C[C@@H]1c2ccsc2CCN1C(=O)c1cc(C2CC2)c2nc(-c3ccc(N4CC[C@H](C(N)=O)C4)nc3F)cn2c1 (single isomer, unassigned) [Compound 23, (3S)-1-(5-{8-cyclopropyl-6-[(4*R)-4-methyl-4,5,6,7-tetrahydrothieno[3,2-c]pyridine-5-carbonyl]imidazo[1,2-a]pyridin-2-yl}-6-fluoropyridin-2-yl)pyrrolidine-3-carboxamide]	0.18	34.7
C[C@@H]1c2ccccc2CCN1C(=O)c1cc(C2CC2)c2nc(-c3ccc(/C=C/C(=O)O)cc3F)cn2c1 [Compound 31, (R),(E)-3-(4-(8-cyclopropyl-6-(1-methyl-1,2,3,4-tetrahydroisoquinoline-2-carbonyl)imidazo[1,2-a]pyridin-2-yl)-3-fluorophenyl)acrylic acid]	0.158	49.9
CCc1cc(C(=O)N2CCc3sc(F)cc3C2C)nn2cc(-c3ccc(NC(=O)N4CC[C@@H](O)C4)cc3F)nc12 (single isomer, unassigned) [Compound 40, (R)-N-(4-(8-ethyl-6-((R*)-2-fluoro-4-methyl-4,5,6,7-tetrahydrothieno[3,2-c]pyridine-5-carbonyl)imidazo[1,2-b]pyridazin-2-yl)-3-fluorophenyl)-3-hydroxypyrrolidine-1-carboxamide]	0.017	29.9
C[C@@H]1c2ccccc2CCN1C(=O)c1cc(-c2ccccc2)c2nc(-c3ccc(N4CC[C@H](C(N)=O)C4)cc3F)cn2c1 [Compound 16, (3S)-1-(3-Fluoro-4-{6-[(1R)-1-methyl-1,2,3,4-tetrahydroisoquinoline-2-carbonyl]-8-phenylimidazo[1,2-a]pyridin-2-yl}phenyl)pyrrolidine-3-carboxamide]	0.186	93.6
CNC(=O)[C@H]1CCN(c2ccc(-c3cn4cc(C(=O)N5CCc6sccc6[C@H]5C)cc(C5CC5)c4n3)c(F)c2)C1 (single isomer, unassigned) [Compound 14, (3S)-1-(4-{8-Cyclopropyl-6-[(4*R)-4-methyl-4,5,6,7-tetrahydro-thieno[3,2-c]pyridine-5-carbonyl]imidazo[1,2-a]pyridin-2-yl}-3-fluorophenyl)-N-methylpyrrolidine-3-carboxamide]	0.084	> 100
C[C@@H]1c2ccccc2CCN1C(=O)c1cc(C2CC2)c2nc(-c3ccc(NC(=O)N4CC(O)C4)cc3F)cn2c1 [Compound 30, (R)-N-(4-(8-cyclopropyl-6-(1-methyl-1,2,3,4-tetrahydroisoquinoline-2-carbonyl)imidazo[1,2-a]pyridin-2-yl)-3-fluorophenyl)-3-hydroxyazetidine-1-carboxamide]	0.089	43.4
C[C@@H]1c2ccsc2CCN1C(=O)c1cc(-c2cccnc2)c2nc(-c3ccc(N4CC[C@H](C(N)=O)C4)cc3F)cn2c1 (single isomer, unassigned) [Compound 18, (3S)-1-(3-Fluoro-4-{6-[(4*R)-4-methyl-4,5,6,7-tetrahydro-thieno[3,2-c]pyridine-5-carbonyl]-8-(pyridin-3-yl)imidazo[1,2-a]pyridin-2-yl}phenyl)pyrrolidine-3-carboxamide]	0.108	21.7
C[C@@H]1c2ccccc2CCN1C(=O)c1cc(C2CC2)c2nc(-c3ccc(NC(=O)N4CC[C@@H](O)C4)cc3F)cn2n1 [Compound 37, (R)-N-(4-(8-cyclopropyl-6-((R)-1-methyl-1,2,3,4-tetrahydroisoquinoline-2-carbonyl)imidazo[1,2-b]pyridazin-2-yl)-3-fluorophenyl)-3-hydroxypyrrolidine-1-carboxamide]		32.2
